Where a name gives a salt, the structure may show the parent alone.
target: bovine cerebral TPK1 (Bos taurus, UniProt A0A059UE90); assay: Inhibitory activity against P-GS1 phosphorylation by bovine cerebral TPK1; format: biochemical; conditions: not given
Procedure: Inhibitory Activity of the Medicament of the Present Invention Against P-GS1 Phosphorylation by Bovine Cerebral TPK1 […] The phosphorylation was started by adding ATP, and the reaction was conducted at 25° C. for 2 hours, and then stopped by adding 21% perchloric acid on ice cooling. The reaction mixture was centrifuged at 12,000 rpm for 5 minutes and adsorbed on P81 paper (Whatmann), and then the paper was washed four times with 75 mM phosphoric acid, three times with water and once with acetone. The paper was dried, and the residual radioactivity was measured using a liquid scintillation counter.

Chain of bovine cerebral TPK1 (A0A059UE90 1-419): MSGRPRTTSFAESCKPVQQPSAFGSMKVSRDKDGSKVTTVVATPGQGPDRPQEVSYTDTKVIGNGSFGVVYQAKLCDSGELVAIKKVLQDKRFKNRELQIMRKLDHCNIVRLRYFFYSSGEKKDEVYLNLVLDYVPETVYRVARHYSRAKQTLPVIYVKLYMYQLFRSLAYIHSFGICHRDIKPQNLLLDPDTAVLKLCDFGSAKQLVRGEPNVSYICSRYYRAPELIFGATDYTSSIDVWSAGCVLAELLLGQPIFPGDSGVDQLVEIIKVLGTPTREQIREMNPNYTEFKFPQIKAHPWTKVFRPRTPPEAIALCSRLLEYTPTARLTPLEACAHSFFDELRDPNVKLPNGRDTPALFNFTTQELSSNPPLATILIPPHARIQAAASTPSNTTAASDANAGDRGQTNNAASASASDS

Work on Cn1c(O[C@H]2C[C@H]3CC[C@@H](C2)N3)nc(-c2ccncn2)cc1=O [Compound No. 2.101, endo-2-(8-Aza-bicyclo[3.2.1]oct-3-yloxy)-1-methyl-1H-[4,4′] bipyrimidinyl-6-one] yielded an IC50 of 115 to 342 nM.

same assay, conditions: P-GS1 phosphorylation, 41.7 μM [γ-32P] ATP, 25° C., 2 hours; read-out: IC50

Point of comparison: Cn1c(OC2CCN(CCC3CCN(Cc4ccccc4)CC3)CC2)nc(-c2ccncn2)cc1=O [Compound No. 1.502, 2-{1-[2-(1-Benzyl-piperidin-4-yl)ethyl]piperidin-4-yloxy}-1-methyl-1H-[4,4′]bipyrimidinyl-6-one], IC50 33.9 nM. Against it:
- Cn1c(OC2CCN(c3ccc(CN4CCNCC4)cc3)CC2)nc(-c2ccncn2)cc1=O [Compound No. 1.202, 1-Methyl-2-[1-(4-piperazin-1-ylmethyl-phenyl)piperidin-4-yloxy]-1H-[4,4′]bipyrimidinyl-6-one] — 2.6-fold lower, 13 nM
- CN1CCN(Cc2ccc(N3CCC(Oc4nc(-c5ccncn5)cc(=O)n4C)CC3)cc2)CC1 [Compound No. 1.203, 1-Methyl-2-{1-[4-(4-methyl-piperazin-1-ylmethyl)phenyl]piperidin-4-yloxy}-1H-[4,4′] bipyrimidinyl-6-one] — 5.3-fold lower, 6.4 nM
- Cn1c(OC2CCN(c3ccccc3CN3CCOCC3)CC2)nc(-c2ccncn2)cc1=O [Compound No. 1.301, 1-Methyl-2-[1-(2-morpholin-4-ylmethyl-phenyl)piperidin-4-yloxy]-1H-[4,4′]bipyrimidinyl-6-one] — 1.8-fold higher, 61.1 nM
- Cn1c(OC2CCN(c3ccc4c(c3)COC(=O)N4)CC2)nc(-c2ccncn2)cc1=O [Compound No. 1.401, 1-Methyl-2-{[1-(2-oxo-1,4-dhydro-2H-3,1-benzoxazin-6-yl)piperidin-4-yl]oxy}-1H-[4,4′] bipyrimidinyl-6-one] — within 1.5-fold, 43.7 nM
- Cn1c(OC2CCN(CCC3CCNCC3)CC2)nc(-c2ccncn2)cc1=O [Compound No. 1.501, 1-Methyl-2-[1-(2-piperidin-4-yl-ethyl)piperidin-4-yloxy]-1H-[4,4′] bipyrimidinyl-6-one] — 2-fold higher, 69 nM
- CN(C)Cc1ccc(C(=O)N2CCC(Oc3nc(-c4ccncn4)cc(=O)n3C)CC2)cc1 [Compound No. 1.601, 2-[1-(4-Dimethylaminomethyl-benzoyl)piperidin-4-yloxy]-1-methyl-1H-[4,4′]bipyrimidinyl-6-one] — within 1.5-fold, 39.8 nM
- Cn1c(OC2CCCN(c3ccc(C#N)cc3)CC2)nc(-c2ccncn2)cc1=O (stereo not shown) [Compound No. 1.701, 4-[4-(1-Methyl-6-oxo-1,6-dihydro-[4,4′]bipyrimidinyl-2-yloxy)azepan-1-yl]benzonitrile] — within 1.5-fold, 30.3 nM
- CC1CCCCC1Oc1nc(-c2ccncn2)cc(=O)n1C (stereo not shown) [Compound No. 1.801, 1-Methyl-2-(2-methyl-cyclohexyloxy)-1H-[4,4′] bipyrimidinyl-6-one] — 1.7-fold higher, 58.1 nM
- Cn1c(O[C@H]2CC[C@H](c3ccc(CO)cc3)CC2)nc(-c2ccncn2)cc1=O [Compound No. 1.901, 2-[trans-4-(4-Hydroxymethyl-phenyl)cyclohexyloxy]-1-methyl-1H-[4,4′]bipyrimidinyl-6-one] — 3.4-fold higher, 115 nM
- Cn1c(O[C@H]2CC[C@@H](c3ccc(CO)cc3)CC2)nc(-c2ccncn2)cc1=O [Compound No. 1.902, 2-[cis-4-(4-Hydroxymethyl-phenyl)cyclohexyloxy]-1-methyl-1H-[4,4′]bipyrimidinyl-6-one] — 3.7-fold higher, 124 nM
- CN1CCN(Cc2ccc([C@H]3CC[C@H](Oc4nc(-c5ccncn5)cc(=O)n4C)CC3)cc2)CC1 [Compound No. 1.903, 1-Methyl-2-{trans-4-[4-(4-methyl-piperazin-1-ylmethyl)phenyl]cyclohexyloxy}-1H-[4,4′] bipyrimidinyl-6-one] — 4.3-fold lower, 7.8 nM
- CN1CCN(Cc2ccc([C@H]3CC[C@@H](Oc4nc(-c5ccncn5)cc(=O)n4C)CC3)cc2)CC1 [Compound No. 1.904, 1-Methyl-2-{cis-4-[4-(4-methyl-piperazin-1-ylmethyl)phenyl]cyclohexyloxy}-1H-[4,4′] bipyrimidinyl-6-one] — within 1.5-fold, 30.3 nM
- CCCCCCc1ccc(Oc2nc(-c3ccncn3)cc(=O)n2C)cc1 [Compound No. 2.001, 2-(4-Hexylphenoxy)-1-methyl-1H[4,4′]bipyrimidinyl-6one] — 13-fold higher, 429 nM
- Cn1c(O[C@H]2C[C@H]3CC[C@@H](C2)N3c2ccc(F)cc2)nc(-c2ccncn2)cc1=O [Compound No. 2.102, endo-2-[8-(4-Fluoro-phenyl)-8-aza-bicyclo[3.2.1]oct-3-yloxy]-1-methyl-1H-[4,4′]bipyrimidinyl-6-one] — 7-fold higher, 236 nM
- Cn1c(OC[C@H]2CCCN2C(=O)Oc2ccccc2)nc(-c2ccncn2)cc1=O [Compound No. 2.201, Phenyl (2R)-2-(1-methyl-6-oxo-1,6-dihydro-[4,4′]bipyrimidinyl-2-yloxymethyl)pyrrolidine-1-carboxylate] — 1.7-fold higher, 56.4 nM
- Cn1c(OC[C@H]2CCN(c3ccsc3)C2)nc(-c2ccncc2F)cc1=O [Compound No. 2.206, 6-(3-Fluoro-pyridin-4-yl)-3-methyl-2-[(3S)-1-(thiophen-3-yl)pyrrolidin-3-ylmethoxy]-3H-pyrimidin-4-one] — 2.2-fold higher, 73.2 nM
- Cn1c(OC[C@H]2CCN(c3ccsc3)C2)nc(-c2ccncn2)cc1=O [Compound No. 2.207, 1-Methyl-2-[(3S)-1-(thiophen-3-yl)pyrrolidin-3-ylmethoxy]-1H-[4,4]′bipyrimidinyl-6-one] — 9.1-fold higher, 307 nM
- Cn1c(OC[C@@H]2CCN(c3ccsc3)C2)nc(-c2ccncc2F)cc1=O [Compound No. 2.208, 6-(3-Fluoro-pyridin-4-yl)-3-methyl-2-[(3R)-1-(thiophen-3-yl)pyrrolidin-3-ylmethoxy]-3H-pyrimidin-4-one] — 3.2-fold higher, 108 nM
- Cn1c(OC[C@@H]2CCN(c3ccccc3)C2)nc(-c2ccncc2F)cc1=O [Compound No. 2.211, 6-(3-Fluoro-pyridin-4-yl)-3-methyl-2-[(3R)-1-phenyl-pyrrolidin-3-ylmethoxy]-3H-pyrimidin-4-one] — 19-fold higher, 658 nM
- Cn1c(OCCc2ccc(CN3CCCCC3)cc2)nc(-c2ccncc2)cc1=O [Compound No. 2.401, 3-Methyl-2-[2-(4-piperidin-1-ylmethyl-phenyl)ethoxy]-6-pyridin-4-yl-3H-pyrimidin-4-one dihydrochioride] — 3.2-fold higher, 110 nM
- CN(C)Cc1ccc(CCOc2nc(-c3ccncc3)cc(=O)n2C)cc1 [Compound No. 2.402, 2-[2-(4-Dimethylaminomethyl-phenyl)ethoxy]-3-methyl-6-pyridin-4-yl-3H-pyrimidin-4-one dihydrochloride] — 4.4-fold higher, 150 nM
- Cn1c(OCC2(c3ccccc3)OCCO2)nc(-c2ccncn2)cc1=O [Compound No. 2.501, 1-Methyl-2-(2-phenyl-[1,3]dioxolan-2-ylmethoxy)-1H-[4,4′] bipyrimidinyl-6-one] — 11-fold higher, 386 nM
- Cn1c(OCC(OC2CCCCO2)c2ccccc2)nc(-c2ccncn2)cc1=O (stereo not shown) [Compound No. 2.502, 1-Methyl-2-[2-phenyl-2-(tetrahydro-pyran-2-yloxy)ethoxy]-1H-[4,4′]bipyrimidinyl-6-one] — 10-fold higher, 349 nM

From patent US9006232B2, “Pyrimidone derivatives” (Mitsubishi Tanabe Pharma Corporation, priority 2009, dated 2015)
